The target in assay [1] is HCV NS3/4A protease genotype 1b (Hepatitis C virus genotype 1b, UniProt P26663). Kind of assay: HCV NS3/4A protease time-resolved fluorescence (TRF) assay, Ki against genotype 1b. The conditions noted are these: IC50 [gt-1b], NS3/4A protease TRF assay, genotype 1b enzyme 0.2 nM. It counts as biochemical. A digest of the protocol: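 Enzyme was pre-incubated 30 min with inhibitor in HEPES pH 7.5 buffer (150 mM NaCl, 15% glycerol, 10 mM DTT). Reaction ran 2.5 h at room temperature with 25 nM europium TRF peptide substrate, read at ex 340/em 615 nm. Enzyme levels: 0.2 nM (1b), 0.4 nM (A156T), 0.025 nM (3a). Ki came from four-parameter IC50 via IC50=Ki(1+[S]/KM).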

In the next assay the test system is HCV genotype 1b replicon. The assay is described as follows: HCV replicon assay, genotype 1b replicon EC50. It counts as cell-based, Hepatitis C virus. The conditions noted are these: Hepatitis C virus, HCV replicon, genotype 1b, read-out: EC50 [gt-1b]. Summed up:
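Stable neomycin-selected genotype 1b replicon cells, some carrying luciferase:Neo^r fusion, plated without G418 with a compound dilution series and incubated 24-48 h. Read-out was RNA (^32P-probe protection or TaqMan, normalized to cyclophilin A) or luciferase activity. EC50 from four-parameter fit as percent of DMSO control.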
A general note: A replicon is a self-replicating genome or part of one, used to study replication in cells.

This passage reports IC50 and EC50 results from US8987195B2 (priority 2012, dated 2015).

The structures appear in SMILES notation. Like-named read-outs stand apart in the source and are kept apart here.

For the compound `CCc1nc2ccc(OC)cc2c2c1O[C@]1(CC2)C[C@H]2C(=O)N[C@]3(C(=O)NS(=O)(=O)C4(C)CC4)C[C@H]3/C=C\CCCCC[C@H](NC(=O)c3c(C)n[nH]c3C)C(=O)N2C1` [Example 485, (2R,6S,12Z,13aS,14aR,16aS)-6-{[(3,5-dimethyl-1H-pyrazol-4-yl)carbonyl]amino}-5′-ethyl-9′-methoxy-N-[(1-methylcyclopropyl)sulfonyl]-5,16-dioxo-1,1′,2′,6,7,8,9,10,11,13a,14,15,16,16a-tetradecahydrospiro[cyclopropa[e]pyrrolo[1,2-a][1,4]diazacyclopentadecine-2,3′-pyrano[2,3-c]quinoline]-14a(5H)-carboxamide], the IC50 – broadly, the concentration at which inhibition is half-maximal – in assay [1] turned out to be 0.005 nM. The EC50 (in general, the midpoint of the concentration-response curve) with HCV genotype 1b replicon is 0.306 nM.

Consider `CCc1nc2ccc(OC)cc2c2c1O[C@]1(CC2)C[C@H]2C(=O)N[C@]3(C(=O)NS(=O)(=O)C4(C)CC4)C[C@H]3/C=C\CCCCC[C@H](NC(=O)O[C@@H](C)C3CC3)C(=O)N2C1` [Example 486, (1S)-1-cyclopropylethyl [(2R,6S,12Z,13aS,14aR,16aS)-5′-ethyl-9′-methoxy-14a-{[(1-methylcyclopropyl)sulfonyl]carbamoyl}-5,16-dioxo-1,1′,2′,5,6,7,8,9,10,11,13a,14,14a,15,16,16a-hexadecahydrospiro[cyclopropa[e]pyrrolo[1,2-a][1,4]diazacyclopentadecine-2,3′-pyrano[2,3-c]quinolin]-6-yl]carbamate], for which, in assay [1], the IC50 was 0.01 nM. Moreover, the EC50 in the assay with HCV genotype 1b replicon stood at 15.2 nM.

Turning to `CCc1nc2ccc(OCCCOC)cc2c2c1O[C@]1(CC2)C[C@H]2C(=O)N[C@]3(C(=O)NS(=O)(=O)C4(C)CC4)C[C@H]3/C=C\CCCCC[C@H](NC(=O)O[C@@H](C)C(C)C)C(=O)N2C1` [Example 487, (2S)-3-methylbutan-2-yl [(2R,6S,12Z,13aS,14aR,16aS)-5′-ethyl-9′-(3-methoxypropoxy)-14a-{[(1-methylcyclopropyl)sulfonyl]carbamoyl}-5,16-dioxo-1,1′,2′,5,6,7,8,9,10,11,13a,14,14a,15,16,16a-hexadecahydrospiro[cyclopropa[e]pyrrolo[1,2-a][1,4]diazacyclopentadecine-2,3′-pyrano[2,3-c]quinolin]-6-yl]carbamate], in assay [1] (K+ salt), the 50% inhibitory concentration (IC50) was determined as 0.005 nM. Moreover, the EC50 with HCV genotype 1b replicon (K+ salt) came to 0.343 nM.

`COc1ccc2nc(C(F)(F)F)c3c(c2c1)[C@](C)(O)C[C@]1(C[C@H]2C(=O)N[C@]4(C(=O)NS(=O)(=O)C5(C)CC5)C[C@H]4/C=C\CCCCC[C@H](NC(=O)OC(C)(C)C)C(=O)N2C1)O3` [Example 489, tert-butyl [(1′R,2S,6S,12Z,13aS,14aR,16aS)-1′-hydroxy-9′-methoxy-1′-methyl-14a-{[(1-methylcyclopropyl)sulfonyl]carbamoyl}-5,16-dioxo-5′-(trifluoromethyl)-1,1′,2′,5,6,7,8,9,10,11,13a,14,14a,15,16,16a-hexadecahydrospiro[cyclopropa[e]pyrrolo[1,2-a][1,4]diazacyclopentadecine-2,3′-pyrano[2,3-c]quinolin]-6-yl]carbamate]: in assay [1], half-maximal inhibition (IC50) required 0.016 nM. In addition, the EC50 in the assay on HCV genotype 1b replicon came out at 4.22 nM.

In assay [1], `CCc1nc2ccc(OC)cc2c2c1O[C@]1(CC2)C[C@H]2C(=O)N[C@]3(C(=O)NS(=O)(=O)C4(C)CC4)C[C@H]3/C=C\CCCCC[C@H](NC(=O)c3sccc3F)C(=O)N2C1` [Example 490, (2R,6S,12Z,13aS,14aR,16aS)-5′-ethyl-6-{[(3-fluorothiophen-2-yl)carbonyl]amino}-9′-methoxy-N-[(1-methylcyclopropyl)sulfonyl]-5,16-dioxo-1,1′,2′,6,7,8,9,10,11,13a,14,15,16,16a-tetradecahydrospiro[cyclopropa[e]pyrrolo[1,2-a][1,4]diazacyclopentadecine-2,3′-pyrano[2,3-c]quinoline]-14a(5H)-carboxamide] displayed an IC50 of 0.017 nM. In the assay on HCV genotype 1b replicon, the EC50 amounted to 0.464 nM.

As to `CC(C)COC(=O)N[C@H]1CCCCC/C=C\[C@@H]2C[C@@]2(C(=O)NS(=O)(=O)C2(C)CC2)NC(=O)[C@@H]2C[C@]3(CCc4c(c(C(F)(F)F)nc5ccc(OCF)cc45)O3)CN2C1=O` [Example 491, 2-methylpropyl [(2R,6S,12Z,13aS,14aR,16aS)-9′-(fluoromethoxy)-14a-{[(1-methylcyclopropyl)sulfonyl]carbamoyl}-5,16-dioxo-5′-(trifluoromethyl)-1,1′,2′,5,6,7,8,9,10,11,13a,14,14a,15,16,16a-hexadecahydrospiro[cyclopropa[e]pyrrolo[1,2-a][1,4]diazacyclopentadecine-2,3′-pyrano[2,3-c]quinolin]-6-yl]carbamate], the IC50 in assay [1] (K+ salt) is 0.003 nM. Further, the EC50 in the assay on HCV genotype 1b replicon (K+ salt) stood at 2.53 nM.

For the compound `CC(C)(C)OC(=O)N[C@H]1CCCCC/C=C\[C@@H]2C[C@@]2(C(=O)NS(=O)(=O)C2(C)CC2)NC(=O)[C@@H]2C[C@]3(CCc4c(c(C(F)(F)F)nc5ccc(OCCO[Si](C)(C)C(C)(C)C)cc45)O3)CN2C1=O` [Example 492, tert-butyl [(2R,6S,12Z,13aS,14aR,16aS)-9′-(2-{[tert-butyl(dimethyl)silyl]oxy}ethoxy)-14a-{[(1-methylcyclopropyl)sulfonyl]carbamoyl}-5,16-dioxo-5′-(trifluoromethyl)-1,1′,2′,5,6,7,8,9,10,11,13a,14,14a,15,16,16a-hexadecahydrospiro[cyclopropa[e]pyrrolo[1,2-a][1,4]diazacyclopentadecine-2,3′-pyrano[2,3-c]quinolin]-6-yl]carbamate], the IC50 in assay [1] came out at 0.044 nM. The EC50 in the assay on HCV genotype 1b replicon stood at 1.39 nM.

Take `COc1ccc2nc(C(F)F)c3c(c2c1)CC[C@]1(C[C@H]2C(=O)N[C@]4(C(=O)NS(=O)(=O)C5(C)CC5)C[C@H]4/C=C\CCCCC[C@H](NC(=O)OC4(C)CCC4)C(=O)N2C1)O3` [Example 493, 1-methylcyclobutyl [(2R,6S,12Z,13aS,14aR,16aS)-5′-(difluoromethyl)-9′-methoxy-14a-{[(1-methylcyclopropyl)sulfonyl]carbamoyl}-5,16-dioxo-1,1′,2′,5,6,7,8,9,10,11,13a,14,14a,15,16,16a-hexadecahydrospiro[cyclopropa[e]pyrrolo[1,2-a][1,4]diazacyclopentadecine-2,3′-pyrano[2,3-c]quinolin]-6-yl]carbamate]: the IC50 in assay [1] (K+ salt) amounted to 0.003 nM. In addition, in the assay with HCV genotype 1b replicon (K+ salt), the EC50 worked out at 0.283 nM.

The compound `COCC1(S(=O)(=O)NC(=O)[C@@]23C[C@H]2/C=C\CCCCC[C@H](NC(=O)OCC2(C)CC2)C(=O)N2C[C@@]4(CCc5c(c(C(F)(F)F)nc6ccc(OC)cc56)O4)C[C@H]2C(=O)N3)CC1` [Example 494, (1-methylcyclopropyl)methyl [(2R,6S,12Z,13aS,14aR,16aS)-9′-methoxy-14a-({[1-(methoxymethyl)cyclopropyl]sulfonyl}carbamoyl)-5,16-dioxo-5′-(trifluoromethyl)-1,1′,2′,5,6,7,8,9,10,11,13a,14,14a,15,16,16a-hexadecahydrospiro[cyclopropa[e]pyrrolo[1,2-a][1,4]diazacyclopentadecine-2,3′-pyrano[2,3-c]quinolin]-6-yl]carbamate] yielded an IC50 in assay [1] of 0.018 nM. Moreover, the EC50 with HCV genotype 1b replicon was 1.73 nM.

With `COCC1(S(=O)(=O)NC(=O)[C@@]23C[C@H]2/C=C\CCCCC[C@H](NC(=O)OC2(C)CCC2)C(=O)N2C[C@@]4(CCc5c(c(C(F)(F)F)nc6ccc(OC)cc56)O4)C[C@H]2C(=O)N3)CC1` [Example 495, 1-methylcyclobutyl [(2R,6S,12Z,13aS,14aR,16aS)-9′-methoxy-14a-({[1-(methoxymethyl)cyclopropyl]sulfonyl}carbamoyl)-5,16-dioxo-5′-(trifluoromethyl)-1,1′,2′,5,6,7,8,9,10,11,13a,14,14a,15,16,16a-hexadecahydrospiro[cyclopropa[e]pyrrolo[1,2-a][1,4]diazacyclopentadecine-2,3′-pyrano[2,3-c]quinolin]-6-yl]carbamate], half-maximal inhibition in assay [1] (IC50) was put at 0.007 nM. Further, the EC50 in the assay with HCV genotype 1b replicon amounted to 1.45 nM.

In turn, `COCC1(S(=O)(=O)NC(=O)[C@@]23C[C@H]2/C=C\CCCCC[C@H](NC(=O)OCC(C)(C)C)C(=O)N2C[C@@]4(CCc5c(c(C(F)(F)F)nc6ccc(OC)cc56)O4)C[C@H]2C(=O)N3)CC1` [Example 496, 2,2-dimethylpropyl [(2R,65,12Z,13aS,14aR,16aS)-9′-methoxy-14a-({[1-(methoxymethyl)cyclopropyl]sulfonyl}carbamoyl)-5,16-dioxo-5′-(trifluoromethyl)-1,1′,2′,5,6,7,8,9,10,11,13a,14,14a,15,16,16a-hexadecahydrospiro[cyclopropa[e]pyrrolo[1,2-a][1,4]diazacyclopentadecine-2,3′-pyrano[2,3-c]quinolin]-6-yl]carbamate] returned an IC50 in assay [1] of 0.027 nM. Moreover, in the assay on HCV genotype 1b replicon, the EC50 was determined as 6.93 nM.

On to `COCC1(S(=O)(=O)NC(=O)[C@@]23C[C@H]2/C=C\CCCCC[C@H](NC(=O)OCC(F)F)C(=O)N2C[C@@]4(CCc5c(c(C(F)(F)F)nc6ccc(OC)cc56)O4)C[C@H]2C(=O)N3)CC1` [Example 497, 2,2-difluoroethyl [(2R,6S,12Z,13aS,14aR,16aS)-9′-methoxy-14a-({[1-(methoxymethyl)cyclopropyl]sulfonyl}carbamoyl)-5,16-dioxo-5′-(trifluoromethyl)-1,1′,2′,5,6,7,8,9,10,11,13a,14,14a,15,16,16a-hexadecahydrospiro[cyclopropa[e]pyrrolo[1,2-a][1,4]diazacyclopentadecine-2,3′-pyrano[2,3-c]quinolin]-6-yl]carbamate], for which the IC50 in assay [1] stood at 0.014 nM. Moreover, the EC50 in the assay with HCV genotype 1b replicon amounted to 1.94 nM.
